Measured values taken from US20140348861A1, “SYNTHETIC PEPTIDES AND RANDOM COPOLYMERS FOR THE TREATMENT OF AUTOIMMUNE DISORDERS” (NATIONAL INSTITUTE OF IMMUNOLOGY, priority 2011, published 2014).
Non-standard residues stand in square brackets, D forms with d. Primed or numbered codes have the meaning given here. No end group written: not given here. β3hY = N[C@H](CC(=O)O)Cc1ccc(O)cc1; Kβ″ = beta-amino acid residue (K); β3hK = NCCCC[C@H](N)CC(=O)O; β3hA = C[C@H](N)CC(=O)O; Yβ = β-tyrosine

Tested on: SJL/J mice exhibiting MBP (85-109) induced relapsing remitting form of EAE
Experiment: Therapeutic activity in MBP (85-109) induced relapsing remitting EAE, treatment from day 11
Assay type: in vivo
Conditions: SJL/J mice, RR EAE; for Therapeutic activity in comparison to GA (Therapeutic activity (Analogs) − Therapeutic activity GA) / Therapeutic activity in comparison to J5 (Therapeutic activity (Analogs) − Therapeutic activity (J5)): 0.1 mg daily for two weeks; for Therapeutic activity = % reduction in cumulative clinical disability score: synthetic peptides, 0.1 mg daily for two weeks from day 11 post-immunization
Experimental: SJL/J and C57BL6/J mice procured from Jackson's laboratory (Bar Harbor, Me.) were maintained under standard housing conditions in the central animal facility at NII as per institutional ethical committee guidelines. 8-10 week old female SJL/J mice were used throughout the study.
To induce RR EAE or chronic progressive EAE, SJL/J or C57BL6/J mice were immunized subcutaneously with 0.2 mg of MBP (85-109) or 0.1 mg MOG (35-55) emulsified in CFA and 200 ng of pertussis toxin was injected intraperitoneally on day 0 and day 2 so as to permeablize the blood brain barrier. All the animals in various experimental groups were scored daily for clinical disability on a scale of 0-6 where 0=no neurological symptoms, 1=limp tail, 2=weakness of hind limbs or ataxia, 3=incomplete paralysis of hind limbs, 4=complete paralysis of hind limbs, 5=complete paralysis of all four limbs, 6=dead. Diseased animals were provided easy access to food and water.
GA, J91, J92, S101, S102, S103 for two weeks and scored for clinical disability.

| Substance | Therapeutic activity in comparison to GA (Therapeutic activity (Analogs) − Therapeutic activity GA) [%] | Therapeutic activity in comparison to J5 (Therapeutic activity (Analogs) − Therapeutic activity (J5)) [%] | Therapeutic activity = % reduction in cumulative clinical disability score [%] |
| --- | --- | --- | --- |
| Eβ^3Kβ^3Pβ^3Kβ^3Vβ^3EAYβ^3Kβ^3Aβ^3Aβ^3Aβ^3Aβ^3Pβ^3Aβ^3 [Analog S16] | 28.88 | 24.92 | 60.2139 |
| KVEAYK (Peptide analog) [Analog J5b, reference compound] | −10.9091 | −14.8663 | 20.43 |
| KVEAYKAAAA (Peptide analog) [Analog J5a, reference compound] | −2.995 | −6.952 | 28.34 |
| KVEAYKAAAAβ [Analog S55] | −2.781 | −6.738 | 28.56 |
| KVEAYKAAAAβ^3 (KVEAYKAAA[β3hA]) [Analog S17] | −2.032 | −5.989 | 29.3 |
| KVEAYKAAAβAβ [Analog S56] | −0.4278 | −4.385 | 30.91 |
| KVEAYKAAAβ^3Aβ^3 (KVEAYKAA[β3hA][β3hA]) [Analog S18] | −3.957 | −7.914 | 27.38 |
| KVEAYKAAβAβAβ [Analog S57] | 8.021 | 4.064 | 39.36 |
| KVEAYKAAβ^3Aβ^3Aβ^3 (KVEAYKA[β3hA][β3hA][β3hA]) [Analog S19] | 5.989 | 2.032 | 37.3262 |
| KVEAYKAβAβAβAβ [Analog S58] | 11.02 | 7.059 | 42.35 |
| KVEAYKAβ^3Aβ^3Aβ^3Aβ^3 (KVEAYK[β3hA][β3hA][β3hA][β3hA]) [Analog S20] | 16.9 | 12.94 | 48.24 |
| KVEAYKβ [Analog S66] | −9.412 | −13.369 | 21.93 |
| KVEAYKβAβAβAβAβ [Analog S59] | 12.94 | 8.984 | 44.28 |
| KVEAYKβ^3 (KVEAY[β3hK]) [Analog S28] | −7.38 | −11.3369 | 23.96 |
| KVEAYKβ^3Aβ^3Aβ^3Aβ^3Aβ^3 [Analog S21] | 17.97 | 14.01 | 49.3 |
| KVEAYβKβ (KVEA[Yβ][Kβ″]) [Analog S67] | −12.9412 | −16.8984 | 18.4 |

| Substance | Therapeutic activity in comparison to GA (Therapeutic activity (Analogs) − Therapeutic activity GA) [%] | Therapeutic activity in comparison to J5 (Therapeutic activity (Analogs) − Therapeutic activity (J5)) [%] | Therapeutic activity = % reduction in cumulative clinical disability score [%] |
| --- | --- | --- | --- |
| KVEAYβKβAβAβAβAβ [Analog S60] | 10.05 | 6.096 | 41.39 |
| KVEAYβ^3Kβ^3 (KVEA[β3hY][β3hK]) [Analog S29] | −1.07 | −5.027 | 30.27 |
| KVEAYβ^3Kβ^3Aβ^3Aβ^3Aβ^3Aβ^3 [Analog S22] | 17.43 | 13.48 | 48.77 |
| KVEAβYβKβ [Analog S68] | −5.134 | −9.091 | 26.2 |
| KVEAβYβKβAβAβAβAβ [Analog S61] | 8.6631 | 4.706 | 40 |
| KVEAβ^3Yβ^3Kβ^3 [Analog S30] | 0.8556 | −3.102 | 32.19 |
| KVEAβ^3Yβ^3Kβ^3Aβ^3Aβ^3Aβ^3Aβ^3 [Analog S23] | 22.14 | 18.18 | 53.48 |
| KVEβAβYβKβ [Analog S69] | −8.877 | −12.8342 | 22.46 |
| KVEβAβYβKβAβAβAβAβ [Analog S62] | 5.455 | 1.497 | 36.79 |
| KVEβ^3Aβ^3Yβ^3Kβ^3 [Analog S31] | −1.818 | −5.7754 | 29.52 |
| KVEβ^3Aβ^3Yβ^3Kβ^3Aβ^3Aβ^3Aβ^3Aβ^3 [Analog S24] | 20.32 | 16.36 | 51.66 |
| KVβEβAβYβKβ [Analog S70] | −16.8984 | −20.8556 | 14.4385 |
| KVβEβAβYβKβAβAβAβAβ [Analog S63] | −9.305 | −13.262 | 22.03 |
| KVβ^3Eβ^3Aβ^3Yβ^3Kβ^3 [Analog S32] | 11.23 | 7.273 | 42.57 |
| KVβ^3Eβ^3Aβ^3Yβ^3Kβ^3Aβ^3Aβ^3Aβ^3Aβ^3 [Analog S25] | 22.25 | 18.29 | 53.58 |
| KβVβEAYβKβ [Analog S72] | −15.9358 | −19.8931 | 15.4 |
